Data published in ChEMBL document CHEMBL1649348, “Antifungal cyclic peptides from Psammosilene tunicoides” (2010).
Values after ≈ are worked out from the molar mass of the structure shown. Peptide text beside a SMILES is read from it.

Assays:
Assay type in all cases: functional
Candida albicans [1] = test: Antifungal activity against Candida albicans SC5314 after 24 hrs to 1 week by two fold dilution method
Candida albicans [2] = test: Antifungal activity against Candida albicans Y0109 after 24 hrs to 1 week by two fold dilution method
Candida tropicalis = test: Antifungal activity against Candida tropicalis after 24 hrs to 1 week by two fold dilution method
Candida parapsilosis = test: Antifungal activity against Candida parapsilosis after 24 hrs to 1 week by two fold dilution method; conditions: Lodderomyces parapsilosis
Cryptococcus neoformans = test: Antifungal activity against Cryptococcus neoformans BLS108 after 24 hrs to 1 week by two fold dilution method

SMILES: CC[C@H](C)[C@@H]1NC(=O)[C@H](CC(N)=O)NC(=O)[C@H](C(C)C)NC(=O)CNC(=O)[C@H](Cc2c[nH]cn2)NC(=O)[C@H](Cc2c[nH]c3ccccc23)NC(=O)[C@@H]2CCCN2C(=O)[C@@H]2CCCN2C1=O [TUNICYCLIN D] (cyclo(GVNIPPWH))
- MIC80 (Candida albicans [1]): 4 µg/mL (≈ 4.44 µM)
- MIC80 (Candida albicans [2]): 16 µg/mL (≈ 17.8 µM)
- MIC80 (Candida tropicalis): 0.25 µg/mL (≈ 0.277 µM)
- MIC80 (Candida parapsilosis): 1 µg/mL (≈ 1.11 µM)
- MIC80 (Cryptococcus neoformans): 1 µg/mL (≈ 1.11 µM)
